Source: patent US20040121954A1, “Poly(dipeptide) as a drug carrier” (priority 1999, published 2004)

Tested on: PC3 (prostate); KB (nasopharyngeal); MDA MB 231 (breast)
Experiment: In vitro cell culture assay (MTT), cell inhibition in three human tumor cell lines
Settings: 72 hours

SMILES: CC(=O)O[C@H]1C(=O)[C@@]2(C)[C@H]([C@H](OC(=O)c3ccccc3)[C@]3(O)C[C@H](OC(=O)[C@H](O)[C@@H](NC(=O)c4ccccc4)c4ccccc4)C(C)=C1C3(C)C)[C@]1(OC(C)=O)CO[C@@H]1C[C@@H]2O [paclitaxel]
- cell inhibition at lower concentrations: more pronounced
